Experiment [1] addresses T1, Recombinant PI3K p110α/p85 (Homo sapiens, UniProt P42336).
T1 construct: made in house
Kind of experiment: PI3K Assay ([γ33P]ATP, PtdIns/PtdSer coated plates). The settings on record: p110α/p85, 2 μM ATP, 1 hour at RT; read-out: IC50 (PI3Kα). The experiment is classed as biochemical. The procedure:
Recombinant PI3K p110α/p85 was prepared in-house. Phosphatidylinositol (PtdIns), phosphotidylserine (PtdSer) and all other unspecified chemicals were purchased from Sigma-Aldrich. [γ33P]ATP and Optiphase scintillant were obtained from Perkin Elmer.
Assays were performed in a final assay volume of 25 μL in 384-well Maxisorp plates (Nunc). […] Maxisorp plates were coated with 20 μL/well of a 1:1 mixture of PtdIns and PtdSer [0.1 mg/mL each dissolved in chloroform:ethanol (3:7)] and left overnight in a fume hood at room temperature to dry.
The enzyme reaction was created by pipetting 5 μL/well of compound (in 2.5% DMSO), 10 μL/well of enzyme (0.5 μg/mL p110α+1 μg/mL p85), and 10 μL/well of 5 μM ATP with 5 μCi/mL [γ^33P]ATP in assay buffer (final concentrations: 0.2 μg/mL p110α, 2 μM ATP, 0.05 μCi/well [γ^33P]ATP in 1× assay buffer: 100 mM Tris-HCl pH 7.0, 200 mM NaCl, 8 mM MgCl2). The reaction was incubated for 1 hour at RT and terminated with 30 μL/well of 50 mM EDTA solution. The plate was then washed twice with TBS, dried, and added with 30 μL/well of scintillant before it was counted in a MicroBeta Trilux.

The target of the next experiment is T2, Full-length mTOR kinase (Homo sapiens, UniProt P42345).
T2 construct: Full-length mTOR kinase and His-tagged 4eBP1 were produced in-house; made in house
Kind of experiment: mTOR Assay (phosphorylation of 4eBP1, [γ33P]-ATP filter plate). The experiment is classed as biochemical. The note with it: 10 μM ATP, 1 hour at room temperature. The procedure:
Full-length mTOR kinase and His-tagged 4eBP1 were produced in-house. [γ^33P]-ATP was purchased from Amersham (GE Healthcare). All chemicals, unless otherwise stated, were from Sigma-Aldrich.
Phosphorylation assays were initially performed in a final volume of 20 μL in 384-well polypropylene plate (Greiner). Compounds were typically tested over the range from 100 μM to 0.006 μM, in 8 step dilutions, in duplicate. 10 μL/well of 2× Enzyme-Substrate solution (1.5 μg/mL mTOR, 40 μg/mL 4eBP1 in 1× assay buffer: 10 mM Hepes pH 7.5, 50 mM NaCl and 10 mM MnCl2) were first added to the sample plate containing 1 μL/well of test compound in neat DMSO. The reaction was initiated by adding 10 μL/well of 20 μM ATP solution (final assay concentration 10 μM ATP and 0.4 μCi/well of [γ^33P]-ATP). After 1 hour incubation at room temperature, the reaction was terminated with 40 μL/well of 20 mM EDTA/1 mM ATP solution.
50 μL/well of the stopped reaction mix was then transferred to 384-well MultiScreenHTS-PH filter plate (Millipore) pre-added with 50 μL/well of 1% phosphoric acid. The plate was washed 4 times with 120 μL/well of 0.5% phosphoric acid via vacuum filtration. Finally, 10 μL/well of Optiphase™ SuperMix liquid scintillation cocktail (Perkin Elmer) was added. After minimum 1 hour of incubation, counting was performed in a Wallac MicroBeta TriLux scintillation counter using coincidence counting mode with crosstalk correction. IC50 is defined as the concentration of compound required for 50% inhibition of kinase enzyme activity.

Experiment [2] concerns human breast cancer cell lines. The settings on record: cited from earlier work.

Structures are written as SMILES.

T1 sequence (P42336 whole entry): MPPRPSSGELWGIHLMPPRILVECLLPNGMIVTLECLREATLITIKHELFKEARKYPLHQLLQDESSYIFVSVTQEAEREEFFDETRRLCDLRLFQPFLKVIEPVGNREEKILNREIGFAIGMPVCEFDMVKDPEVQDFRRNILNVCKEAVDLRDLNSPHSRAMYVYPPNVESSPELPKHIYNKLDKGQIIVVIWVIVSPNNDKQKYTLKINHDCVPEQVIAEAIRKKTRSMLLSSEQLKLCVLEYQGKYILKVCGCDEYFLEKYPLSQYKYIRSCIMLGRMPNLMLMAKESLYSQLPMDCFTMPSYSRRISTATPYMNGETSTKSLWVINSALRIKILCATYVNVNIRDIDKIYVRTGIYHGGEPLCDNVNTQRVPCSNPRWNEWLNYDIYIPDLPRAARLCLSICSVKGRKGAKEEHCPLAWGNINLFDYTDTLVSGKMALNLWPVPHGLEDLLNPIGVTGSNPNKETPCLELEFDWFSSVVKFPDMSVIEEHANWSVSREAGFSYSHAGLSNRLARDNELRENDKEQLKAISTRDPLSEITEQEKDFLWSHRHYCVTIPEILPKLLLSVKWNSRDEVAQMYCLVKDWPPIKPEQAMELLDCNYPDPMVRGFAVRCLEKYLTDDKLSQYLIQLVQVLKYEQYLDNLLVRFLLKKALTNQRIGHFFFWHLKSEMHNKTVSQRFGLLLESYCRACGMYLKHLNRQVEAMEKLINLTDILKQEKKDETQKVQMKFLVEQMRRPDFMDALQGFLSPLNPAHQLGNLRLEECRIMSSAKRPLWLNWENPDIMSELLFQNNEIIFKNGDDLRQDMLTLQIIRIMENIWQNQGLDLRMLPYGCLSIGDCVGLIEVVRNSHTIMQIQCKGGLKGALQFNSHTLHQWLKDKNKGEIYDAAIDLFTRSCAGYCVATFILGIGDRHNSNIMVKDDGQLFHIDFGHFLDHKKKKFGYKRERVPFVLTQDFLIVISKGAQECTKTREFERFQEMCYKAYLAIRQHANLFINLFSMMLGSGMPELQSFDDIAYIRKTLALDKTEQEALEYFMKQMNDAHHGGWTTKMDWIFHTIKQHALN
T1 sequence (P27986 whole entry partner): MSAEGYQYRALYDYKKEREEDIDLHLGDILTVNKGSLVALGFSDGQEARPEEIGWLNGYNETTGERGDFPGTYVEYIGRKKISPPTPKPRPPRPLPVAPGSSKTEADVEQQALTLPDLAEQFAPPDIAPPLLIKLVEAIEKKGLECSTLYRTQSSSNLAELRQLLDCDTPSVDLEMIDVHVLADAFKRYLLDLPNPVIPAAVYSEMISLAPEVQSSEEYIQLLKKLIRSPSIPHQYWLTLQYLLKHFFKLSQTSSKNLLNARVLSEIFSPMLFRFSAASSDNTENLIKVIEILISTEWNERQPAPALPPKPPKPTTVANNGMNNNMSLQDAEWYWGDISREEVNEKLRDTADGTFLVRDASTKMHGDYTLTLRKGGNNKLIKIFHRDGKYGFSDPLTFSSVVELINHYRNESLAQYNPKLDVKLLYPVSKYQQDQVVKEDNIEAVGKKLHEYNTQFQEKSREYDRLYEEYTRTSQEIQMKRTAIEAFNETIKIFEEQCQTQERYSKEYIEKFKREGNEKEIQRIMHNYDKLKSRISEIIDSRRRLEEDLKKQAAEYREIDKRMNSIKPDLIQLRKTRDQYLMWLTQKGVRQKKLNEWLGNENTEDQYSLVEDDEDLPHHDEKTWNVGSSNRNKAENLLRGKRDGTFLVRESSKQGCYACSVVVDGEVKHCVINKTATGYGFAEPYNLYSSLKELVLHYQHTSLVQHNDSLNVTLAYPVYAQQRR

`Nc1cnc(-c2nc(N3CCOCC3)nc3c2ncn3C2CCN(c3ccccc3)CC2)cn1` [Compound 16]: the half-inhibitory concentration (IC50) (in experiment [1]; against Full-length mTOR kinase) was < 1 µM in each case.
`Nc1cnc(-c2nc(N3CCOCC3)nc3c2nc(Br)n3C2CCOC2)cn1` (stereo not shown) [Compound 20]: the IC50 (in experiment [1]; against Full-length mTOR kinase) was < 1 µM in each case.
In the case of `Nc1cnc(-c2nc(N3CCOCC3)nc3c2ncn3Cc2ccccc2)cn1` [Compound 6], the 50% inhibitory concentration (IC50) was < 1 µM in experiment [1] and 1 to 5 µM against Full-length mTOR kinase.
With `Nc1cnc(-c2nc(N3CCOCC3)nc3c2ncn3C2CCc3ccccc32)cn1` (stereo not shown) [Compound 23], the half-maximal inhibitory concentration (IC50) (in experiment [1]; against Full-length mTOR kinase) was < 1 µM each time.
As for `CC(C)(C)Cn1cnc2c(-c3cnc(N)cn3)nc(N3CCOCC3)nc21` [Compound 22], the IC50 (in experiment [1]; against Full-length mTOR kinase) was < 1 µM each time.
Regarding `Nc1cnc(-c2nc(N3CCOCC3)nc3[nH]cnc23)cn1` [Compound 17], the IC50 (in experiment [1]; at Full-length mTOR kinase) was < 1 µM in each case.
For `CC1CCCCC1n1cnc2c(-c3cnc(N)cn3)nc(N3CCOCC3)nc21` (stereo not shown) [Compound 25], the concentration for half-maximal inhibition (IC50) (in experiment [1]; against Full-length mTOR kinase) was < 1 µM throughout.
Turning to `CC(C)C(C)n1cnc2c(-c3cnc(N)cn3)nc(N3CCOCC3)nc21` (stereo not shown) [Compound 2], the IC50 (in experiment [1]; on Full-length mTOR kinase) was < 1 µM each time.
Consider `COCC(C)n1cnc2c(-c3cnc(N)cn3)nc(N3CCOCC3)nc21` (stereo not shown) [Compound 10], for which the half-inhibitory concentration (IC50) (in experiment [1]; on Full-length mTOR kinase) was < 1 µM each time.
In the case of `Nc1cnc(-c2nc(N3CCOCC3)nc3c2ncn3C2CCC2)cn1` [Compound 24], the IC50 (in experiment [1]; against Full-length mTOR kinase) was < 1 µM each time.
For the molecule `Nc1cnc(-c2nc(N3CCOCC3)nc3c2ncn3Cc2c(F)cccc2F)cn1` [Compound 7, 5-[9-(2,6-Difluoro-benzyl)-2-morpholin-4-yl-9H-purin-6-yl]-pyrazin-2-ylamine], the IC50 (in experiment [1]; at Full-length mTOR kinase) was < 1 µM throughout.
`CO[C@H]1C[C@@H]2CC[C@@H](C)[C@@](O)(O2)C(=O)C(=O)N2CCCC[C@H]2C(=O)O[C@H]([C@H](C)C[C@@H]2CC[C@@H](OC(=O)C(C)(CO)CO)[C@H](OC)C2)CC(=O)[C@H](C)/C=C(\C)[C@@H](O)[C@@H](OC)C(=O)[C@H](C)C[C@H](C)/C=C/C=C/C=C/1C` [CCI-779]: the “IC50 (sensitive lines)” value in experiment [2] (six of eight human breast cancer cell lines) is “low nanomolar range”. In addition, in experiment [2] (two resistant lines of eight human breast cancer cell lines), the IC50 is > 1 µM.
With `Nc1cnc(-c2nc(N3CCOCC3)nc3c2ncn3-c2ccc3c(c2)OCO3)cn1` [Compound 14], the 50% inhibitory concentration (IC50) (in experiment [1]; at Full-length mTOR kinase) was < 1 µM throughout.
In the case of `Nc1cnc(-c2nc(N3CCOCC3)nc3c2ncn3C2Cc3ccccc3C2)cn1` [Compound 21], the IC50 (in experiment [1]; against Full-length mTOR kinase) was < 1 µM throughout.
`Nc1cnc(-c2nc(N3CCOCC3)nc3c2ncn3C2CCCC2)cn1` [Compound 5]: the IC50 (in experiment [1]; on Full-length mTOR kinase) was < 1 µM in each case.
Take `Nc1cnc(-c2nc(N3CCOCC3)nc3c2ncn3C2CCc3ccccc3C2)cn1` (stereo not shown) [Compound 13]: the IC50 (in experiment [1]; against Full-length mTOR kinase) was < 1 µM each time.
Regarding `Nc1cnc(-c2nc(N3CCOCC3)nc3c2ncn3CC2CC2)cn1` [Compound 8], the half-inhibitory concentration (IC50) (in experiment [1]; at Full-length mTOR kinase) was < 1 µM throughout.
For `CCC(C)n1c(Br)nc2c(-c3cnc(N)cn3)nc(N3CCOCC3)nc21` (stereo not shown) [Compound 15, 5-(8-Bromo-9-sec-butyl-2-morpholin-4-yl-9H-purin-6-yl)-pyrazin-2-ylamine], the IC50 (in experiment [1]; at Full-length mTOR kinase) was < 1 µM throughout.
Regarding `CCC(C#N)n1cnc2c(-c3cnc(N)cn3)nc(N3CCOCC3)nc21` (stereo not shown) [Compound 3], the IC50 (in experiment [1]; against Full-length mTOR kinase) was < 1 µM each time.
With `CC(C1CC1)n1cnc2c(-c3cnc(N)cn3)nc(N3CCOCC3)nc21` (stereo not shown) [Compound 9], the IC50 (in experiment [1]; at Full-length mTOR kinase) was < 1 µM each time.
For the molecule `Nc1cnc(-c2nc(N3CCOCC3)nc3c2ncn3C2CCOC2)cn1` (stereo not shown) [Compound 12], the IC50 (in experiment [1]; against Full-length mTOR kinase) was < 1 µM in each case.
In the case of `Nc1cnc(-c2nc(N3CCOCC3)nc3c2ncn3C2CCN(c3ccccc3)C2)cn1` (stereo not shown) [Compound 18], the concentration for half-maximal inhibition (IC50) (in experiment [1]; at Full-length mTOR kinase) was < 1 µM throughout.
Regarding `Cc1cccc(-n2cnc3c(-c4cnc(N)cn4)nc(N4CCOCC4)nc32)c1` [Compound 11, 5-(2-Morpholin-4-yl-9-m-tolyl-9H-purin-6-yl)-pyrazin-2-ylamine], the IC50 (in experiment [1]; against Full-length mTOR kinase) was < 1 µM throughout.
Take `CCC(CC)n1cnc2c(-c3cnc(N)cn3)nc(N3CCOCC3)nc21` [Compound 4]: the IC50 (in experiment [1]; against Full-length mTOR kinase) was < 1 µM each time.
With `Nc1cnc(-c2nc(N3CCOCC3)nc3c2ncn3-c2ccccc2)cn1` [Compound 19], the IC50 (in experiment [1]; on Full-length mTOR kinase) was < 1 µM throughout.
For the molecule `CCC(C)n1cnc2c(-c3cnc(N)cn3)nc(N3CCOCC3)nc21` (stereo not shown) [Compound 1, 5-(9-sec-Butyl-2-morpholin-4-yl-9H-purin-6-yl)-pyrazin-2-ylamine], the IC50 (in experiment [1]; on Full-length mTOR kinase) was < 1 µM each time.

Source of the values: patent US20110105500A1, “PYRAZINE SUBSTITUTED PURINES” (S*BIO Pte Ltd., priority 2008, published 2011).
